“Also recorded” adds a separate entry of the source. Structures can show the parent of a compound that is named as a salt.
Key:
Assay type in all cases: physicochemical
[1] = DSC, FT-IR/ATR and XRPD compatibility of excipients with Cyclobenzaprine HCl, mixed (A) and milled (B) 1:1 mixtures (Example 2); conditions: for Type of interaction between excipient and API (summary): 1:1 mixtures, mixed and milled
Procedure: As described above, thermal analytical techniques were further used to assess the compatibility of a drug product (tablet) containing Cyclobenzaprine HCl (API). The compatibility assessment was carried out between the API and additional excipients in a 1:1 ratio. The 1:1 APT-excipient mixtures were formed in two different ways: first, by mixing only, and second, by strong milling in an agate mortar. The thermal behavior recorded in the two different mixtures were compared with those of the single components. On the basis of thermal events recorded for each component and for the mixtures, the analyses were carried out by investigating the meanings of the peaks recorded by differential scanning calorimetry (DSC) in mixtures between the API and the excipients. Furthermore, in order to define the nature of the interaction, the Fourier Transform Infra Red Spectroscopy with Total Attenuated Reflectance (FT-IR/ATR) and X-ray powder diffraction (XRPD) of some samples (API, excipient, and mixed and milled mixtures) was carried out and compared.
Aliquots of API and each excipient were weighed in a ratio of 1:1 and ground in an agate mortar. Then, the homogeneous mixtures were analyzed. These sample mixtures were labeled “B”, while the mechanical-only mixtures were labeled “A.”
The DSC heating curves were obtained by TA 821 DSC Mettler instrument under the following conditions:
(§1) Ambient: Nitrogen 30 mL/min
(§2) Sample holder: normal open aluminum pan
(§3) Temperature range: from 25° C. to 250° C.
(§4) Instrument calibration: Indium sample purity 99.999%
The FT-IR spectra were collected with a Perkin Elmer spectrum Two instrument with air as background and 4 cm-1 resolution.
X-ray powder diffraction (XRPD) tests were performed with the ULTIMA IV instrument (Rigaku), laying the sample on a static sample holder. The X-ray focusing slit has a variable width, interlocked with the q value. The X-ray tube has a Copper target, with a current intensity of 40 mA and a voltage of 40 kV. Radiation was generated by the Cockcroft-Walton method, and was constituted by Kα1 (1.540562 Å) and Kα2 (1.544398 Å). The analytical conditions were:
Fixed Time; sampling width 0.02 deg, scanning rate 1.3 s/step, 2 q range 3.35 deg and sample holder; amorphous glass equiangular 9200/2G, 0.2 mm deep. The sample was pressed with a glass plate.

[2] = XRPD of binary Cyclobenzaprine HCl-mannitol mixtures (Example 3); conditions: binary mixtures 30-90% API, no thermal treatment
Procedure: In order to confirm the eutectic formation and to characterize its physical properties, several binary mixtures at different ratios of API-excipient were prepared and analyzed by DSC and by X-ray powder diffraction (XRPD). The mixtures were obtained by gently milling in agate mortar of micronized Cyclobenzaprine HCl and mannitol, in order to obtain homogeneous distribution of the particles. For each DSC heating curve, the onset temperature and the enthalpy were evaluated both for the eutectic contribute and for the excess of component. The recorded values were plotted and a phase diagram between the two components was obtained with a characteristic profile of phase diagrams of eutectic mixtures. Mixtures also were investigated by XRPD and compared with the patterns of pure components. […] Aliquots of Cyclobenzaprine HCl API and Mannitol were weighed in the ratios described below and ground in an agate mortar, and the homogeneous mixtures subsequently analyzed. X-ray powder diffraction (XRPD) tests were performed with a ULTIMA IV (Rigaku) instrument, laying the sample on a static sample holder. […] The radiation generated by the Cockcroft-Walton method is constituted by Kα1 (1.540562 Å) and Kα2 (1.544398 Å). The analytical conditions were as follows: Fixed Time: Sampling width, 0.02 deg; Scanning rate, 1.0 s/step […] Sample holder: amorphous glass—equiangular 9200/2G, 0.2 mm deep. […]

[3] = Dissolution test, USP paddle, pyrophosphate buffer pH 4.5; conditions: pH 4.5, free base still present and does not go into solution
Procedure: To test the dissolution properties of the 6 mannitol eutectic, dissolution tests were carried out with a Copley DIS 6000 instrument under the following conditions: Apparatus: USP Paddle RPM: 50 Medium: Pyrophosphate buffer 0.5% pH=4.5±0.05 Additive: Methocel 0.3% Vessel volume: 300 mL Temperature: 37±0.5° C. Sampling time: 1, 2, 5, 10, 20, 30, and 60 min, then each hour until 6 hours. The sampling solutions were diluted 1 to 50 mL and then 1 to 50 mL with medium and submitted to UV analysis with UV ([…]) under the following conditions: λ max: 224 nm Cuvette: […] Blank: medium

[4] = DSC compatibility of excipients with Amitriptyline HCl (Example 4); conditions: Amitriptyline HCl:excipient 1:1, milled in agate mortar
Procedure: Thermal analytical techniques were used to assess the compatibility of the drug product Amitriptyline HCl. The compatibility assessment was carried out between the API and the excipients in a 1:1 ratio. On the basis of thermal events recorded for each component and for the mixtures, the analyses were carried out by investigating the peaks recorded by DSC in mixtures between API and the excipients. Differences in thermal profiles between the single compound and the related mixtures were obtained after milling the products in an agate mortar.

[5] = DSC compatibility of excipients with Cyclobenzaprine HCl (Example 1); conditions: for Excipient reactions with API, Mixture 1:1: 1:1 API:excipient, ground in agate mortar
Procedure: Thermal analytical techniques were used to assess the compatibility of a drug product (tablet) containing Cyclobenzaprine HCl (API). The compatibility assessment was carried out between the API and a number of possible excipients in a 1:1 ratio. Based on the thermal events recorded for each component and for the mixtures, the analyses were carried out by investigating the peaks recorded by differential scanning calorimetry (DSC) in mixture between API and the excipients. Differences in thermal profiles between the single compound and the related mixture obtained after milling the products in an agate mortar were evaluated. Stability and compatibility also were also assessed on the final drug product after stress conditions at 40° C. and 50° C. for one month.
A “formulation ratio” mixture was made with the following composition: 2.40 mg Cyclobenzaprine HCl, 31.55 mg Mannitol and Maize starch, 2.00 Crospovidone, 0.50 mg colloidal silica, 0.050 mg Sodium Stearyl Fumarate, and 1.05 Potassium hydrogen phosphate.
Aliquots of API and each excipient were weighed in a ratio of 1:1 (unless specified otherwise) and ground in an agate mortar. The homogeneous mixtures then were analyzed.
The DSC heating curves were obtained with a TA 821 DSC Mettler instrument under the following conditions:
as §1, §2, §3, §4

[6] = listed as Potassium phosphate bibasic
[7] = listed as Sodium Stearyl fumarate, fumarate

## O=C([O-])CC(O)(CC(=O)[O-])C(=O)[O-].[Na+].[Na+].[Na+] [Tri Sodium Citrate anhydrous, Trisodium citrate anhydrous]
[1]; 1:1 mixture, room temperature, no thermal treatment
  Nature of interaction by FT-IR/ATR: no chemical acid-base reaction had occurred
[1]
  Type of interaction between excipient and API (summary): only physical

## OC[C@@H](O)[C@@H](O)[C@H](O)[C@H](O)CO [Mannitol]
[2]
  Interaction between API and mannitol by XRPD: no adduct formation, only a physical eutectic formation; also recorded: no adduct interaction occurred
[1]
  Type of interaction between excipient and API (summary): formation of a eutectic

## CN(C)CCC=C1c2ccccc2C=Cc2ccccc21 [Cyclobenzaprine HCl, 3-(5H-dibenzo[a,d]cyclohepten-5-ylidene)-N,N-dimethyl-1-propanamine]
[3]
  Cyclobenzaprine dissolution: < 100%

## Sodium Phosphate dodecahydrate
[4]
  Interactions between API and excipients, Mixture in formulation (1:1 ratio): physical interaction

## O=P([O-])([O-])O.[K+].[K+] [Potassium phosphate dibasic, dipotassium hydrogen phosphate]
[5]
  Excipient reactions with API, Mixture 1:1: Acid - base interaction
  Excipient reactions with API, Mixture in formulation ratio: Low chemical
[5]; [6]
  Excipient reactions with API, Mixture 1:1: chemical interaction (acid-base); also recorded: chemical (acid-base) interaction
  Excipient reactions with API, Mixture in formulation ratio: chemical (acid-base) interaction
[5]; listed as K2HPO4
  Excipient reactions with API, Mixture in formulation ratio: small interaction

## CCCCCCCCCCCCCCCCCCOC(=O)/C=C/C(=O)[O-].[Na+] [Sodium stearyl fumarate]
[5]; fumarate
  Excipient reactions with API, Mixture 1:1: Physical interaction
  Excipient reactions with API, Mixture in formulation ratio: No interaction
[5]; [7]
  Excipient reactions with API, Mixture 1:1: small physical interaction
  Excipient reactions with API, Mixture in formulation ratio: this incompatibility disappears

## OC[C@@H](O)[C@@H](O)[C@H](O)[C@@H](O)CO [Sorbitol]
[1]
  Type of interaction between excipient and API (summary): physical interaction

Source: patent publication US11737991B2, “Eutectic formulations of cyclobenzaprine hydrochloride and amitriptyline hydrochloride” (TONIX PHARMA HOLDINGS LIMITED, priority 2013, dated 2023)
